This experiment deals with human CD34+ cells. Nature of the experiment: Expansion of CD34+ cells into MKPs in serum-free culture. The format is cell-based. The note with it: 60 ng/ml IL-9 with TPO mimetic and IL-1, 8 days, 3 donors. An excerpt:
Isolation of human CD34^+ cells. G-CSF mobilized peripheral blood was harvested from healthy donors via leukapheresis (see, e.g., Kawamoto et al. (2009) Stem Cells 27:2857). CD34+ cells were positively selected using magnetic beads (Dynal, Lake Success, N.Y.) linked to anti-CD34 monoclonal antibody on an Isolex Device (Baxter, Deerfield, Ill.). […] Aliquots of 15-20×10^6 cells/ml were cryopreserved until use.
Expansion of CD34^+ cells. CD34^+ cells from donors were thawed, pooled as indicated, and seeded at 5×10^5 cells/ml in serum-free X-vivo 15 medium (Lonza, Walkersville, Md.) supplemented with IX GlutaMAX (Invitrogen, Carlsbad, Calif.). Cytokines were added as follows. […] Cultures were incubated at 37° C. in a humidified atmosphere containing 5% carbon dioxide. Viable cells were counted daily and cell concentration was readjusted to about 5×10^5 cells/ml by the addition of fresh medium with cytokines.
Analysis of MKPs. Cell surface marker expression was analyzed by flow cytometry using CD15b, CD33, CD34, CD41, CD42a, CD90, and CD184 antibodies. Prior to antibody staining, cells were washed with HBSS containing 2% BSA and blocked with rat and mouse IgG (SouthernBiotech, Birmingham, AL) for 10 minutes at 4° C. […]

Data on one substance can be found in patent US20140205582A1, “MEGAKARYOCYTE PROGENITOR CELLS FOR PRODUCTION OF PLATELETS” (CELLERANT THERAPEUTICS, INC., priority 2011, published 2014).

“Also recorded” adds a separate entry of the source.

“IL-9: interleukin-9 cytokine, also known as megakaryoblast growth factor”: the “effect on number of MKPs” value is listed as “increased the number of MKPs from all 3 donors; also recorded: increases the size of all populations”.
